The nature of data set [1]: physchem. As to conditions: buffer, pH 7.4.
A short description of data set [2]: AUC (0 to infinity) in Sprague-Dawley rat at 1 mg/kg, iv. Type of data set: ADME, organism-based. More on the design: time infinity, dose 1 mg/kg, route intravenous. The note with it: plasma.
Data set [3] is described as follows: AUC (0 to infinity) in Sprague-Dawley rat at 3 mg/kg. Type of data set: ADME, organism-based. More on the design: dose 3 mg/kg, time infinity. The note with it: plasma.
Data set [4] can be described thus: Plasma clearance in Sprague-Dawley rat at 1 mg/kg, iv. More on the design: dose 1 mg/kg, route intravenous. Type of data set: ADME, organism-based.
A short description of data set [5]: Half life in Sprague-Dawley rat at 1 mg/kg, iv. The format is ADME, organism-based. As to conditions: in vivo. Also on record: dose 1 mg/kg, route intravenous.
The nature of data set [6]: Volume of distribution at steady state in Sprague-Dawley rat at 1 mg/kg, iv. Type of data set: ADME, organism-based. Also on record: dose 1 mg/kg, route intravenous. As to conditions: in vivo, read-out: Vdss.
The nature of data set [7]: Cmax in Sprague-Dawley rat at 3 mg/kg. The format is ADME, organism-based. More on the design: dose 3 mg/kg. As to conditions: in vivo.
Data set [8] in a line: Tmax in Sprague-Dawley rat at 3 mg/kg. Also on record: dose 3 mg/kg. Type of data set: ADME, organism-based. The note with it: in vivo.
A short description of data set [9]: Oral bioavailability in Sprague-Dawley rat at 3 mg/kg. The note with it: in vivo. Type of data set: ADME, organism-based.

For `Cc1cccc(C#N)c1Oc1ccc2ncnc(Nc3ccn(C)n3)c2c1`, the logD (commonly the decadic logarithm of the distribution of all forms, ionised or not, between an organic phase and buffer at a given pH) in data set [1] turned out to be 3.4.
On the same count and under the same terms, the value for `Cn1ccc(Nc2ncnc3ccc(Oc4ccccn4)cc23)n1` was 2.1.
Same read-out and setting: the same measure for `Cn1ccc(Nc2ncnc3ccc(Oc4ncccc4F)cc23)n1`: 2.4; for `Cn1ccc(Nc2ncnc3ccc(Oc4ncccc4Cl)cc23)n1`: 2.9.
Same read-out and setting: the same measure for `CS(=O)(=O)c1cccc(F)c1Oc1ccc2ncnc(Nc3cccnn3)c2c1`: 2.
In turn, `Cc1csc(Nc2ncnc3ccc(Oc4ccccc4S(C)(=O)=O)cc23)n1` had a logD in data set [1] of 4.3.
On the same count and under the same terms, the value for `Cc1csc(Nc2ncnc3ccc(Oc4ccccc4F)cc23)n1` was 5.8.
In data set [1], `Cc1csc(Nc2ncnc3ccc(Oc4ccc(F)cc4)cc23)n1` displayed a logD of 5.8.
As to `Cc1cccc(S(C)(=O)=O)c1Oc1ccc2ncnc(Nc3ccn(C)n3)c2c1`, the logD in data set [1] was 2.1.
On the same count and under the same terms, the same measure for `Cn1ccc(Nc2ncnc3ccc(Oc4ccncn4)cc23)n1`: 1.7; for `Cn1ccc(Nc2ncnc3ccc(Oc4c(Cl)cccc4S(C)(=O)=O)cc23)n1`: 2.3.
The molecule `Cn1ccc(Nc2ncnc3ccc(Oc4ccccc4S(C)(=O)=O)cc23)n1` yielded a logD in [1] of 1.9.
The same measure, in the same setting: the same measure for `Cn1ccc(Nc2ncnc3ccc(Oc4c(F)cccc4F)cc23)n1`: 3.7; for `CS(=O)(=O)c1cccc(F)c1Oc1ccc2ncnc(Nc3cc[nH]n3)c2c1`: 1.8.
On the same count and under the same terms, the value for `Cn1ccc(Nc2ncnc3ccc(Oc4ncccc4CO)cc23)n1` was 1.7.
Turning to `Cn1ccc(Nc2ncnc3ccc(Oc4c(F)cccc4S(C)(=O)=O)cc23)n1`, the AUC(0-inf) (as a rule, the area under the concentration-time curve extrapolated to infinity) in data set [2] amounted to 6.3 µM·h; in data set [3], 13.3 µM·h. Further, the clearance – broadly, the rate of elimination divided by the concentration – in [4] is 6.8 mL/min/kg. Moreover, the half-life (in general, how long it takes for the measured level to halve) in data set [5] is 1.3 h. Besides, the Vd in data set [6] stood at 0.5 L/kg. For the same molecule, the Cmax – broadly, the highest concentration seen after dosing – in data set [7] is 5.8 µM. In addition, the Tmax (as a rule, the time at which the peak concentration occurs) in data set [8] came to 0.9 h. Also, in data set [9], the bioavailability – broadly, the share of a dose that reaches the circulation, judged against a reference dose that is usually intravenous – turned out to be 71%. This molecule also gave a logD in data set [1] of 1.9.
In the case of `Cc1nsc(Nc2ncnc3ccc(Oc4c(F)cccc4S(C)(=O)=O)cc23)n1`, the log distribution coefficient (logD) in data set [1] worked out at 3.1.
On the same count and under the same terms, the value for `CS(=O)(=O)c1cccc(F)c1Oc1ccc2ncnc(Nc3ccccn3)c2c1` was 3.6; that for `Cc1cnc(Nc2ncnc3ccc(Oc4c(F)cccc4S(C)(=O)=O)cc23)cn1` was 2.5; that for `CS(=O)(=O)c1cccc(F)c1Oc1ccc2ncnc(Nc3cnccn3)c2c1` was 2.2.
On the same count and under the same terms, the same measure for `CN(C)C(=O)c1cccnc1Oc1ccc2ncnc(Nc3ccn(C)n3)c2c1`: 1.4.
With `CCn1ccc(Nc2ncnc3ccc(Oc4c(F)cccc4S(C)(=O)=O)cc23)n1`, the logD in data set [1] was found to be 2.4.
Still for that read-out and setting: the value for `Cn1ccc(Nc2ncnc3ccc(Oc4ncccc4Br)cc23)n1` was 3.4; that for `Cn1ccc(Nc2ncnc3ccc(Oc4ccc(F)cc4F)cc23)n1` was 3.6.

Values taken from ChEMBL document CHEMBL1155212, “Discovery and structure-activity relationships of a novel class of quinazoline glucokinase activators” (Bioorg Med Chem Lett, 2009).
